# Results published in US20260315452A1, “PROTEASE INHIBITORS AND USES THEREOF” (priority 2023, published 2026).
# Molecular target: SARS-CoV-2 3CLpro (Severe acute respiratory syndrome coronavirus 2, UniProt P0DTD1)
# Experiment: biochemical
# Details: inhibition of SARS-CoV-2 3CLpro; 15 nM 3CLpro, 25 μM fluorogenic substrate, 37° C.; read-out: Inhibitory Activity (IC50)
row,Structure (SMILES),IC50 [nM]
1,"CNC(=O)c1cc(Br)cc(S(C)(=O)=O)c1N[C@@H]1CCCC[C@@H]1NC(=O)c1cncc2ccccc12 [Compound 57, N-((1S,2R)-2-((4-bromo-2-(methylcarbamoyl)-6-(methylsulfonyl)phenyl)amino)cyclohexyl) isoquinoline-4-carboxamide]",≥ 10000
2,"CNC(=O)c1cc(Br)cc([N+](=O)[O-])c1NC(C1CC1)C1CN(C(=O)c2cncc3ccccc23)C1 (stereo not shown) [Compound 58, 5-bromo-2-((cyclopropyl(1-(isoquinoline-4-carbonyl)azetidin-3-yl)methyl)amino)-N-methyl-3-nitrobenzamide]",100 to 1000
3,"CNC(=O)c1cc(Br)cc([N+](=O)[O-])c1NC1(C2CN(C(=O)c3cncc4ccccc34)C2)CC1 [Compound 63, 5-bromo-2-((1-(1-(isoquinoline-4-carbonyl)azetidin-3-yl)cyclopropyl)amino)-N-methyl-3-nitrobenzamide]",1000 to 10000
4,"CC(C)C(Nc1c(-c2ncco2)cc(Br)cc1[N+](=O)[O-])C1CN(C(=O)c2cncc3ccccc23)C1 (stereo not shown) [Compound 65, (3-(1-((4-bromo-2-nitro-6-(oxazol-2-yl)phenyl)amino)-2-methylpropyl)azetidin-1-yl)(isoquinolin-4-yl)methanone]",1000 to 10000
5,"CNC(=O)c1cc(Br)cc([N+](=O)[O-])c1N1CCc2[nH]nc(-c3cncc4ccccc34)c2C1 [Compound 69, 5-bromo-2-(3-(isoquinolin-4-yl)-1,4,6,7-tetrahydro-5H-pyrazolo[4,3-c]pyridin-5-yl)-N-methyl-3-nitrobenzamide]",1000 to 10000
6,"CNC(=O)c1cc(Br)cc([N+](=O)[O-])c1NC(C(C)C)C1CN(C(=O)c2cncnc2)C1 (stereo not shown) [Compound 71, 5-bromo-N-methyl-2-((2-methyl-1-(1-(pyrimidine-5-carbonyl)azetidin-3-yl)propyl)amino)-3-nitrobenzamide]",1000 to 10000
7,"CNC(=O)c1cc(Br)cc([N+](=O)[O-])c1NC(C(C)C)C1CN(C(=O)c2cncc(C(F)(F)F)c2)C1 (stereo not shown) [Compound 73, 5-bromo-N-methyl-2-((2-methyl-1-(1-(5-(trifluoromethyl)nicotinoyl)azetidin-3-yl)propyl)amino)-3-nitrobenzamide]",1000 to 10000
8,"Cc1c(F)cncc1C(=O)N1CCC2(CCN(c3c(C(=O)NC4CC(F)(F)C4)cc(Br)cc3[N+](=O)[O-])C2)C1 (stereo not shown) [Compound 76, 5-bromo-N-(3,3-difluorocyclobutyl)-2-(7-(5-fluoro-4-methylnicotinoyl)-2,7-diazaspiro[4.4]nonan-2-yl)-3-nitrobenzamide]",1000 to 10000
9,"CNC(=O)c1cc(Br)cc([N+](=O)[O-])c1NCC1CN(C(=O)c2cncc3ccccc23)CC1(F)F (stereo not shown) [Compound 77, 5-bromo-2-(((4,4-difluoro-1-(isoquinoline-4-carbonyl)pyrrolidin-3-yl)methyl)amino)-N-methyl-3-nitrobenzamide]",1000 to 10000
10,"C[C@@H](NC(=O)c1cc(Br)cc([N+](=O)[O-])c1N1CCC2(CN(C(=O)c3cncc4ccccc34)CC2(F)F)C1)C(F)(F)F (stereo partly drawn) [Compound 78, 5-bromo-2-(9,9-difluoro-7-(isoquinoline-4-carbonyl)-2,7-diazaspiro[4. 4]nonan-2-yl)-3-nitro-N-((R)-1,1,1-trifluoropropan-2-yl)benzamide]",< 100
11,"CNC(=O)c1cc(Br)cc([N+](=O)[O-])c1N[C@H]1CN(C(=O)c2cncc3ccccc23)CC[C@@H]1F [Compound 87, 5-bromo-2-(((3S, 4S)-4-fluoro-1-(isoquinoline-4-carbonyl)piperidin-3-yl)amino)-N-methyl-3-nitrobenzamide]",< 100
12,"CNC(=O)c1cc(Br)cc([N+](=O)[O-])c1N[C@@H]1CN(C(C)=O)CC[C@@H]1NC(=O)c1cncc2ccccc12 [Compound 90, N-((3R, 4S)-1-acetyl-3-((4-bromo-2-(methylcarbamoyl)-6-nitrophenyl)amino)piperidin-4-yl)isoquinoline-4-carboxamide]",1000 to 10000
13,"CNC(=O)c1cc(Br)cc([N+](=O)[O-])c1N[C@H]1CN(C(=O)C2CC(=O)NC(=O)C2)CCC1(F)F [Compound 100, (S)-5-bromo-2-((1-(2,6-dioxopiperidine-4-carbonyl)-4,4-difluoropiperidin-3-yl)amino)-N-methyl-3-nitrobenzamide]",100 to 1000
14,"CNC(=O)c1cc(Br)cc([N+](=O)[O-])c1N[C@H]1CN(C(=O)c2cnc3ccccn23)CCC1(F)F [Compound 101, (S)-5-bromo-2-((4,4-difluoro-1-(imidazo[1,2-a]pyridine-3-carbonyl)piperidin-3-yl)amino)-N-methyl-3-nitrobenzamide]",< 100
15,"CNC(=O)c1cc(Br)cc([N+](=O)[O-])c1O[C@@H]1CCCC[C@@H]1NC(=O)c1cncc2ccccc12 [Compound 102, N-[(1S,2R)-2-[4-bromo-2-(methylcarbamoyl)-6-nitro-phenoxy]cyclohexyl]isoquinoline-4-carboxamide]",< 100
16,"CNC(=O)c1cc(Br)cc([N+](=O)[O-])c1N[C@H]1CN(C(=O)c2cc(=O)[nH]c3ccccc23)CCC1(F)F [Compound 103, (S)-5-bromo-2-((4,4-difluoro-1-(2-oxo-1,2-dihydroquinoline-4-carbonyl)piperidin-3-yl)amino)-N-methyl-3-nitrobenzamide]",< 100

row,Structure (SMILES),IC50 [nM]
1,CNC(=O)c1cc(Br)cc([N+](=O)[O-])c1N[C@H]1CN(C(=O)C2CC(=O)Nc3ccccc32)CCC1(F)F (stereo partly shown) [Compound 104],< 100
2,"CNC(=O)c1cc(Cl)cc([N+](=O)[O-])c1N[C@H]1CN(C(=O)c2cncc3ncn(C)c23)CCC1(F)F [Compound 105, (S)-5-chloro-2-((4,4-difluoro-1-(1-methyl-1H-imidazo[4,5-c]pyridine-7-carbonyl)piperidin-3-yl)amino)-N-methyl-3-nitrobenzamide]",< 100
3,"CNC(=O)c1cc(Cl)cc([N+](=O)[O-])c1N[C@H]1CN(C(=O)c2cncc3cnn(C)c23)CCC1(F)F [Compound 106, (S)-5-chloro-2-((4,4-difluoro-1-(1-methyl-1H-pyrazolo[4,3-c]pyridine-7-carbonyl)piperidin-3-yl)amino)-N-methyl-3-nitrobenzamide]",< 100
4,"CNC(=O)c1cc(Br)cc([N+](=O)[O-])c1N[C@H]1CN(C(=O)c2cncc3cccnc23)CCC1(F)F [Compound 107, (S)-5-bromo-2-((4,4-difluoro-1-(1,6-naphthyridine-8-carbonyl)piperidin-3-yl)amino)-N-methyl-3-nitrobenzamide]",< 100
5,"CNC(=O)c1cc(Br)cc([N+](=O)[O-])c1N[C@H]1CN(C(=O)c2cncc3cccnc23)CC[C@@H]1F [Compound 108, 5-bromo-2-(((3S, 4S)-4-fluoro-1-(1,6-naphthyridine-8-carbonyl)piperidin-3-yl)amino)-N-methyl-3-nitrobenzamide]",< 100
6,"O=C(N[C@H]1CCOC1)c1cc(Br)cc(C(F)(F)F)c1N[C@H]1CN(C(=O)c2cncc3cccnc23)CCC1(F)F [Compound 109, 5-bromo-2-(((S)-4,4-difluoro-1-(1,6-naphthyridine-8-carbonyl)piperidin-3-yl)amino)-N-((S)-tetrahydrofuran-3-y1)-3-(trifluoromethyl)benzamide]",< 100
7,"O=C(c1cc(Br)cc(C(F)(F)F)c1N[C@H]1CN(C(=O)c2cncc3cccnc23)CCC1(F)F)N1CC(O)C1 [Compound 110, (S)-(5-bromo-2-((4,4-difluoro-1-(1,6-naphthyridine-8-carbonyl)piperidin-3-yl)amino)-3-(trifluoromethyl)phenyl)(3-hydroxyazetidin-1-yl)methanone]",< 100
8,"COC1CN(C(=O)c2cc(Cl)cc([N+](=O)[O-])c2N[C@H]2CN(C(=O)c3cncc4cccnc34)CCC2(F)F)C1 [Compound 111, (S)-(5-chloro-2-((4,4-difluoro-1-(1,6-naphthyridine-8-carbonyl)piperidin-3-yl)amino)-3-nitrophenyl)(3-methoxyazetidin-1-yl)methanone]",< 100
9,"O=C(c1cc(Cl)cc([N+](=O)[O-])c1N[C@H]1CN(C(=O)c2cncc3cccnc23)CCC1(F)F)N1CC(O)C1 [Compound 112, (S)-(5-chloro-2-((4,4-difluoro-1-(1,6-naphthyridine-8-carbonyl)piperidin-3-yl)amino)-3-nitrophenyl)(3-hydroxyazetidin-1-yl)methanone]",< 100
10,"CNC(=O)c1cc(Br)cc([N+](=O)[O-])c1N[C@H]1CN(C(=O)c2cnnn2C)CCC1(F)F [Compound 113, (S)-5-bromo-2-((4,4-difluoro-1-(1-methyl-1H-1,2,3-triazole-5-carbonyl)piperidin-3-yl)amino)-N-methyl-3-nitrobenzamide]",≥ 10000
11,"CNC(=O)c1cc(Br)cc([N+](=O)[O-])c1N[C@H]1CN(C(=O)c2cccnc2C#N)CCC1(F)F [Compound 114, (S)-5-bromo-2-((1-(2-cyanonicotinoyl)-4,4-difluoropiperidin-3-yl)amino)-N-methyl-3-nitrobenzamide]",1000 to 10000
12,"O=C(NC1CC(F)(F)C1)c1cc(Br)cc([N+](=O)[O-])c1N1CCC2(CCN(C(=O)c3cncnc3)C2)C1 (stereo not shown) [Compound 115, 5-bromo-N-(3,3-difluorocyclobutyl)-3-nitro-2-(7-(pyrimidine-5-carbonyl)-2,7-diazaspiro[4.4]nonan-2-yl)benzamide]",≥ 10000
13,"CNC(=O)c1cc(Cl)cc([N+](=O)[O-])c1NC(C(C)C)C1CN(C(=O)c2cncc3ccccc23)C1 (stereo not shown) [Compound 130, 5-chloro-2-((1-(1-(isoquinoline-4-carbonyl)azetidin-3-yl)-2-methylpropyl)amino)-N-methyl-3-nitrobenzamide acid]",100 to 1000
14,"CNC(=O)c1cc(Br)cc([N+](=O)[O-])c1Nc1ccccc1NC(=O)c1cncc2ccccc12 [Compound 131, N-(2-((4-bromo-2-(methylcarbamoyl)-6-nitrophenyl)amino)phenyl) isoquinoline-4-carboxamide]",≥ 10000
15,"O=C(NC1CC(F)(F)C1)c1cc(Br)cc([N+](=O)[O-])c1N[C@H]1CN(C(=O)c2cncc3ccccc23)CC(F)(F)C1 [Compound 134, (R)-5-bromo-2-((5,5-difluoro-1-(isoquinoline-4-carbonyl)piperidin-3-yl)amino)-N-(3,3-difluorocyclobutyl)-3-nitrobenzamide]",100 to 1000
